This passage reports IC50, ED50 and inhibition results from ChEMBL document CHEMBL1130795, “Synthesis and SAR of a novel, potent and structurally simple LTD4 antagonist of the quinoline class” (Bioorg Med Chem Lett, 1998).

Experiment [1] deals with Cysteinyl leukotriene receptor 1 (Cavia porcellus). As to the kind of experiment: In vitro for antagonistic activity against LTD4 receptor in guinea pig ileum.
Experiment [2] concerns the target T1, Cysteinyl leukotriene receptor 1 (Cavia porcellus, UniProt Q2NNR5).
T1 sequence (Q2NNR5 whole entry): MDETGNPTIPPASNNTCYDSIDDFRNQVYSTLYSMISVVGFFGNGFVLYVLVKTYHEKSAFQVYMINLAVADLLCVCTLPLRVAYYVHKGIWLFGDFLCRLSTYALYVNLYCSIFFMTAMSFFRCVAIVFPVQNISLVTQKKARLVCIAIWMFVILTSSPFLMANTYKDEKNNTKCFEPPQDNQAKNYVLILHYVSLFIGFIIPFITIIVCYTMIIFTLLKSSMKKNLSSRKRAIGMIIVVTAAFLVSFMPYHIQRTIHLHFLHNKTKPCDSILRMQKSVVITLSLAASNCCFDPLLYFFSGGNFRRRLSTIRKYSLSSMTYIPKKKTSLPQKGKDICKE
Briefly: In vitro inhibition of [3H]LTD4 binding to guinea pig lung membrane. It counts as tissue-based.

In experiment [3] the test system is Cavia porcellus. As to the kind of experiment: Compound was evaluated in vivo for LTD4-induced bronchospasm in guinea pig. It counts as functional.
In experiment [4] the target is T2, Cysteinyl leukotriene receptor 1 (Cavia porcellus) (UniProt Q2NNR5).
T2 sequence (whole entry): T1 sequence (Q2NNR5 whole entry)
Briefly: In vitro antagonistic activity against LTD4 in guinea pig ileum at 200 nM. Format: functional, tissue-based.

Experiment [5] has as its target T2, Cysteinyl leukotriene receptor 1 (Cavia porcellus). Briefly: In vitro antagonistic activity against LTD4 in guinea pig ileum at 240 nM. It counts as functional, tissue-based.
For experiment [6], the system named is Cavia porcellus. Briefly: Compound was evaluated in vivo for LTD4-induced bronchospasm in guinea pig; IA means inactive at 10 mg/kg p.o. It counts as functional, organism-based. Further details: dose 10 mg/kg.

Molecules are shown by their SMILES. Active and inactive are the calls of the source. The calls are words filed in the database; no cut-off is given here.

The IC50 is the concentration at which inhibition is half-maximal. As for `CCCC(CCC)(CC(=O)Nc1cccc(OCc2ccc3ccc(F)cc3n2)c1)C(=O)O`, in experiment [1], the IC50 is 2 nM.

`CCC(CC)(CC(=O)Nc1cccc(OCc2ccc3ccc(OC)cc3n2)c1)C(=O)O`: the IC50 in experiment [1] was 80 nM. This IC50 lies about 40-fold higher than the previous one.

As usually defined, the ED50 is the midpoint of the dose-response relation. On to `CCC(CC)(CC(=O)Nc1cccc(OCc2ccc3ccc(Cl)cc3n2)c1)C(=O)O`, for which the IC50 worked out at 64 nM in experiment [2] and 0.8 nM in experiment [1]. The compound also showed an ED50 in experiment [3] of 0.11 mg/kg.

In experiment [1], `CCC(CC)(CC(=O)Nc1cccc(OCc2ccc3ccc(OC(F)(F)F)cc3n2)c1)C(=O)O` registered an IC50 of 9 nM.

For the compound `CCC(CC)(CC(=O)Nc1cccc(OCc2ccc3ccc(Br)cc3n2)c1)C(=O)O`, the IC50 in experiment [1] stood at 4 nM.

As to `CCCCC(CCCC)(CC(=O)Nc1cccc(OCc2ccc3ccc(F)cc3n2)c1)C(=O)O`, the IC50 in experiment [1] is 1 nM.

With `CCC(CC)(CC(=O)Nc1cccc(SCc2ccc3ccc(F)cc3n2)c1)C(=O)O`, the IC50 in experiment [1] was 4 nM.

For `CCC(CC)(CC(=O)O)C(=O)Nc1cccc(OCc2ccc3ccc(F)cc3n2)c1`, the IC50 in experiment [1] worked out at 140 nM.

`O=C(CC1(C(=O)O)CCCC1)Nc1cccc(OCc2ccc3ccc(F)cc3n2)c1`: in experiment [1], the IC50 is given as 10 nM.

In the case of `CCC(CC)(CC(=O)Nc1cccc(OCc2ccc3cc(F)c(F)cc3n2)c1)C(=O)O`, the IC50 in experiment [1] came to 0.5 nM.

Turning to `O=C(CC1(C(=O)O)CCCCC1)Nc1cccc(OCc2ccc3ccc(F)cc3n2)c1`, in experiment [1], the IC50 turned out to be 7.3 nM.

`CC(C)(CC(=O)Nc1cccc(OCc2ccc3ccc(F)cc3n2)c1)C(=O)O` registered an IC50 in experiment [1] of 1.4 nM.

In experiment [1], `CCC(CC)(CC(=O)Nc1cccc(OCc2ccc3cc(F)ccc3n2)c1)C(=O)O` registered an IC50 of 2 nM. This IC50 and that of the compound before are within 1.5-fold of each other.

`CCC(CC)(CC(=O)Nc1cccc(OCc2ccc3c(F)cccc3n2)c1)C(=O)O` displayed an IC50 in experiment [1] of 0.3 nM.

`CCC(CC)(CC(=O)Nc1cccc(OCc2ccc3cc(C)c(C)cc3n2)c1)C(=O)O` displayed a half-inhibitory concentration (IC50) in experiment [1] of 11 nM.

With `CCC(CC)(CC(=O)Nc1cccc(OCc2ccc3ccccc3n2)c1)C(=O)O`, the IC50 in experiment [2] turned out to be 9 nM; in experiment [1], 0.9 nM. The compound also returned an ED50 in experiment [3] of 0.42 mg/kg.

In experiment [1], `CCC(CC)(CC(=O)Nc1cccc(OCc2ccc3cc(C)ccc3n2)c1)C(=O)O` returned an IC50 of 24 nM. That is a double-digit nanomolar value.

As for `CCC(CC)(CC(=O)Nc1cccc(OCc2ccc3ccc(C(C)=O)cc3n2)c1)C(=O)O`, in experiment [1], the IC50 was 2500 nM. Against the preceding compound, the IC50 is about 100-fold higher.

`CCC(CC)(CC(=O)Nc1cccc(COc2ccc3ccccc3n2)c1)C(=O)O` returned an IC50 in experiment [1] of 3900 nM.

In the case of `CCC(CC)(CC(=O)Nc1cccc(/C=C/c2ccc3ccc(F)cc3n2)c1)C(=O)O`, the IC50 in experiment [1] is listed as 0.4 nM.

In experiment [1], `CCC(CC)(CC(=O)Nc1cccc(OCc2ccc3cccc(F)c3n2)c1)C(=O)O` yielded an IC50 of 6 nM.

As for `CCC(CC)(CC(=O)Nc1cccc(OCc2ccc3ccc(F)cc3n2)c1)C(=O)O`, the IC50 in experiment [2] came to 6 nM; in experiment [1] it was 0.2 nM. Besides, the ED50 in experiment [3] was 0.07 mg/kg.

The term inhibition denotes the share of the control response that was lost under treatment. Read a high inhibition as a response far below the control. In experiment [4], `CCC(CC)(CC(=O)Nc1cccc(OCc2ccc3ccc(OCc4ccccc4)cc3n2)c1)C(=O)O` returned an inhibition of 0%.

In experiment [1], `O=C(O)CCC(=O)Nc1cccc(OCc2ccc3ccc(F)cc3n2)c1` returned an IC50 of 200 nM.

Compound `CCC(CC)(CC(=O)Nc1cccc(OCc2ccc3ccc(O)cc3n2)c1)C(=O)O` showed an inhibition in experiment [5] of 0%.

Turning to `CCC(CC)(CC(=O)Nc1cccc(OCc2ccc3ccc(C(F)(F)F)cc3n2)c1)C(=O)O`, the ED50 entry in experiment [6] is “inactive”. The IC50 in experiment [1] is recorded as 3 nM.

Regarding `CCC(CC)(CC(=O)Nc1cccc(OCc2ccc3ccc(C)cc3n2)c1)C(=O)O`, in experiment [1], the IC50 turned out to be 11 nM.

As for `CCC(C)(CC(=O)Nc1cccc(OCc2ccc3ccc(F)cc3n2)c1)C(=O)O` (configuration not stated), in experiment [1], the IC50 is 6.4 nM. This IC50 is about 1.7-fold lower than that of the compound before.

For the compound `COc1cc(C(=O)NS(=O)(=O)c2ccccc2C)ccc1Cc1cn(C)c2ccc(NC(=O)OC3CCCC3)cc12` [ZAFIRLUKAST], it took a dose of 0.55 mg/kg to reach the 50% effect level in experiment [3] (ED50).

`CCC(CC)(CC(=O)Nc1cccc(OCc2ccc3cc4c(cc3n2)CCC4)c1)C(=O)O` showed an IC50 in experiment [1] of 9 nM. That is a single-digit nanomolar value.
